Results reported in paper PMC5527305, “Prevention of Ophthalmia Neonatorum Caused by Neisseria gonorrhoeae Using a Fatty Acid-Based Formulation” (mBio, 2017).
≈ marks a conversion by molar mass, not a printed value. Entries after “also recorded” stand apart in the source; their conditions may differ. Read-outs that look alike come from different tables or passages of the source.

Key:
[1] = system: N. gonorrhoeae strain NCCP11945; experiment: Growth inhibition screen on GC solid media containing 1 mM candidate; type: cell-based, Neisseria gonorrhoeae; settings: 1 mM candidate in GC agar media; Yes = strain NCCP11945 did not grow
Experimental: (§1) To find potential candidates, 37 organic acids, esters, and salts were tested in a two-tiered screening process. These candidates were chosen based on the carbon chain lengths of the fatty acids, the presence or absence of saturation, and modifications to represent a diverse selection of organic acid candidates. The first screen aimed to determine the ability of each compound to inhibit the growth of N. gonorrhoeae strain NCCP11945 at 1 mM in GC solid media (Table 1). This strain was chosen due to its relatively recent isolation, its antibiotic resistance profile, and the availability of a complete genome sequence. Those candidates able to inhibit the growth of N. gonorrhoeae strain NCCP11945 were investigated in a second assay. The second assay tested the ability of each compound to cause at least a 4-log reduction in viable bacteria at 1 mM with a 2-min exposure time (Table 1).
(§2) The well-characterized N. gonorrhoeae NCCP11945 strain ([36]) was used in the screening stage. Eight isolates obtained from Public Health England, representing circulating isolates from various European locations, were used in the log reduction assays. All isolates were cultured for 24 h prior to testing by plating on GC solid medium (Oxoid Limited, Hampshire, United Kingdom) with Kellogg supplements and incubation at 37°C and 5% CO2 ([37]).

[2] = system: N. gonorrhoeae strain NCCP11945; experiment: Log reduction assay in GC broth, 2-min exposure; type: cell-based, Neisseria gonorrhoeae; settings: for log reduction at 1000 µM: Neisseria gonorrhoeae, NCCP11945, 2 min, 1 mM, read-out: Log reduction at 1 mM (calculated log reduction in viable bacteria); for log reduction at 1000 µM / Log reduction at 1 mM (calculated log reduction in viable bacteria): maximum score 6 = all cells killed
Experimental: as §1
(§3) Log reductions were done as described by Bergsson and coworkers ([18]). Briefly, cells were suspended in GC broth (18 g/liter GC base [Oxoid, Limited] with added defined supplements) to an optical density at 520 nm of 0.3, which is approximately equivalent to 10^7 to 10^8 cells per ml ([38]). […] The contents of the tubes were then mixed at room temperature for 2 min and immediately diluted in a 10-fold dilution series to 10^−4. The dilutions were plated by spreading 10 µl on a quarter of a plate; a 100-µl neat solution was also plated. Plates were then incubated at 37°C for 48 h, with all samples plated in duplicate. […] Additional testing at lower concentrations was also done on the eight clinical isolates of European origin.

[3] = system: bovine RBCs; experiment: Red blood cell (RBC) lysis assay; type: cell-based
Experimental: Whole bovine blood was obtained from a local slaughter house (ABP), adding 90 ml blood to 10 ml 110 mM trisodium citrate anticoagulant. RBCs were isolated the same day. The RBCs were washed by three repeats of centrifugation (1,500 × g for 10 min) and resuspension in phosphate-buffered saline (PBS) with 10 mM glucose (PBSG). Testing was done following the guidelines of the European Union Reference Laboratory for alternatives to animal testing (EURL-ECVAM) ([22]). The organic acids were solubilized in dimethyl sulfoxide (DMSO) and diluted to a maximum DMSO concentration of 10%. In a 2-ml centrifuge tube, 750 µl of the sample was added to 250 µl RBCs. Controls used in the assay were a complete lysis control (deionized water) and a fragility control (PBSG–10% DMSO). Samples were shaken at room temperature for 1 h and then centrifuged at 14,000 × g for 2 min. An aliquot of 750 µl of the supernatant was taken and its absorbance at 451 nm measured.

[4] = system: nine gonococcal isolates (strain NCCP11945 and eight isolates from Public Health England); experiment: Minimum bactericidal concentration by log reduction against nine gonococcal isolates; type: cell-based, Neisseria gonorrhoeae; settings: for Killing of all gonococcal cells for all isolates: 1 mM; for MBC: lowest concentration giving mean log reduction above 4 from a 2-min exposure
Description: The seven candidates were further tested against nine gonococcal isolates, including strain NCCP11945 and eight isolates from Public Health England, to find their minimal bactericidal concentration (MBC). This was defined as the lowest concentration tested to give an average 4-log10 reduction in bacterial count after a 2-min exposure. […] Any candidate that killed all gonococcal cells in the cell suspension was given a log reduction score of six.
as §2, §3

[5] = system: gonococcal cells (isolate NCCP 11945); experiment: Log reduction in artificial tear fluid with or without calcium chloride; type: cell-based, Neisseria gonorrhoeae; settings: for Reduction in bacterial cell number in artificial tear fluid containing calcium chloride / Antigonococcal properties in tear fluid made without calcium chloride: 1 mM candidate, 2 min; for Reduction in bacterial cell number in artificial tear fluid containing calcium chloride: with calcium; for Effect of calcium in artificial tear fluid on antimicrobial effect: calcium 1 mM, Fig. 2
Experimental: The antigonococcal properties of the seven selected fatty acids were tested in artificial tear fluid, which contained calcium chloride. The addition of 1 mM lauric acid, tridecanoic acid, or sodium dodecanoate gave no reduction in bacterial cell number after exposure, in contrast to the results seen when they were tested in culture medium (Fig. 2). […] This was most likely due to the negative effect of calcium on the aqueous solubility of these candidates.
Artificial tear fluid was made as described by Mirejovsky and others ([39]) with or without calcium chloride. […] As with the previous log reductions, 10^7 gonococcal cells (isolate NCCP 11945) were suspended in GC broth. The cell suspension was centrifuged to remove the culture medium, and the bacteria were resuspended in the tear fluid. This was then added to the concentrated organic acid candidates. The cells were then enumerated again after 2 min of exposure to estimate any reduction in cell number due to the exposure to the organic acid.

[6] = system: bovine cornea; experiment: Bovine corneal opacity and permeability (BCOP) test
Experimental: Bovine eyes were collected from a local slaughter house (ABP, Guildford, Surrey, United Kingdom) and were transported in cold saline solution for testing at the laboratory. Each eye was first visually examined for signs of damage before use. The test was conducted as detailed by Abdelkader and coworkers ([21]). The exposure time of the test substances was 30 s. The selected bactericidal compounds were tested at 1 mM in saline solution, with a corresponding vehicle control (1% ethanol–saline solution) also performed. […] The test area of the cornea was then washed with 10 ml saline solution. Corneal damage to the test area was assessed by fluorescein staining and examination under a cobalt blue filter. Pathological scoring based on opacity, epithelial integrity, and epithelial detachment was done in accordance with previous publications ([19]). Each of the seven lead candidates was tested in triplicate, and each test was performed on a separate day using a different batch of eyeballs. Corneal histology was done as outlined by Abdelkader and coworkers ([21]) by evaluating the damage to the epithelial layer and stroma of the cornea after hematoxylin and eosin staining.

[7] = Neisseria gonorrhoeae, 2 min, read-out: MBC

Row | Compound | Growth inhibition [1] | Log reduction at 1 mM: at least a 4-log reduction in viable bacteria (Yes/No) [2] | log reduction at 1000 µM [2] | other results
1 | CCCCCCCC(=O)OCC(O)CO (racemic) [1-octanoyl-rac-glycerol] | Yes | No | 0 | 
2 | CCCCCCCCCCCCCCCC(=O)O [Palmitic acid] | No |  |  | 
3 | CCCCCC/C=C\CCCCCCCC(=O)O [Palmitoleic acid] | Yes | Yes | > 6 | H50 concentration relative to MBC ([3]; H50 = concentration to lyse 50% of RBCs, MBC from Table 1): lower than their minimum bactericidal concentration; Killing of all gonococcal cells for all isolates ([4]; 2 min): did not; MBC [4, 7]: 500 µM (≈ 127 µg/mL)
4 | CCCCCCCC/C=C\CCCCCCCCCCCC(=O)O [Erucic acid] | Yes | No | 0 | 
5 | CCCCCCCC(=O)O [Caprylic/octanoic acid] | No |  |  | 
6 | CCCCCCCCCCC(=O)O [Undecanoic acid] | Yes | No | 0.2 | 
7 | O=C(O)CCCCCC(=O)O [Pimelic acid] | No |  |  | 
8 | CCCCCCCCCCCCCCCC(=O)OC(C)C [Isopropyl palmitate] | No |  |  | 
9 | CCCCCCCCCC(=O)O [Capric acid/decanoic acid] | No |  |  | 
10 | CCCCCCCCCCCCCCCCC(=O)O [Heptadecylic acid] | No |  |  | 
11 | CCCCCCCCCCCCCC(=O)O [Myristic acid] | Yes | No | 1.5 | 
12 | CCCCCCCCCCCCCC(=O)[O-].[Na+] [Sodium myristate] | Yes | No |  | Log reduction at 1 mM (calculated log reduction in viable bacteria) [2]: 0.5 log10
13 | CCCCCCCC/C=C/CCCCCCCC(=O)O [Elaidic acid] | Yes | No | 0.5 | 
14 | CCCCCCCC/C=C\CCCCCCCC(=O)O [Oleic acid] | Yes | No | 1 | 
15 | CCCCCCCCCCCCCCC(=O)O [Pentadecylic acid] | Yes | No |  | Log reduction at 1 mM (calculated log reduction in viable bacteria) [2]: 0.5 log10
16 | O=C(O)CCCCCCCC(=O)O [Azelaic acid] | No |  |  | 
17 | C/C=C/C=C/C(=O)O [Sorbic acid] | No |  |  | 
18 | CCCCCCCCCCCCCCCCCC(=O)O [Stearic acid] | No |  |  | 
19 | CCCCCCCCCCCC(=O)[O-].[Na+] [Sodium dodecanoate] | Yes | Yes |  | Reduction in bacterial cell number in artificial tear fluid containing calcium chloride [5]: no reduction; Antigonococcal properties in tear fluid made without calcium chloride [5]: completely restored; Effect of calcium in artificial tear fluid on antimicrobial effect [5]: inactivated; Log reduction at 1 mM (calculated log reduction in viable bacteria) [2]: > 6 log10; Mean cumulative BCOP score ([6]; 1 mM in saline solution, 30 s exposure, triplicate): lower than 0.5; Fluorescein staining of cornea ([6]; 1 mM, around rubber application ring): any sign of fluorescein staining; BCOP irritancy classification ([6]; candidates 1 mM in saline, controls 0.5 M NaOH, 100% acetone, 30 s exposure): nonirritants; Killing of all gonococcal cells for all isolates ([4]; 2 min): killed all gonococcal cells for all isolates; MBC [4]: 750 µM
20 | O=C(O)CCC(=O)O [Succinic acid] | No |  |  | 
21 | O=C(O)CCCCC(=O)O [Adipic acid] | No |  |  | 
22 | CCCCCCCCCCCC(=O)O [Lauric acid] | Yes | Yes |  | H50 concentration relative to MBC [3]: greater than their MBCs; Reduction in bacterial cell number in artificial tear fluid containing calcium chloride [5]: no reduction; Antigonococcal properties in tear fluid made without calcium chloride [5]: completely restored; Effect of calcium in artificial tear fluid on antimicrobial effect [5]: inactivated; Log reduction at 1 mM (calculated log reduction in viable bacteria) [2]: > 6 log10; Killing of all gonococcal cells for all isolates ([4]; 2 min): killed all gonococcal cells for all isolates; MBC [4]: 750 µM (≈ 150 µg/mL)
23 | CCCCCCCCCCCCC(=O)O [Tridecanoic acid] | Yes | Yes | > 6 | H50 concentration relative to MBC [3]: greater than their MBCs; RBC lysis (hemolysis) ([3]; 1 h incubation, bovine RBCs): did not lyse RBCs at any concentration investigated; also recorded: did not cause any hemolysis; Reduction in bacterial cell number in artificial tear fluid containing calcium chloride [5]: no reduction; Antigonococcal properties in tear fluid made without calcium chloride [5]: completely restored; Effect of calcium in artificial tear fluid on antimicrobial effect [5]: inactivated; Killing of all gonococcal cells for all isolates ([4]; 2 min): did not; MBC [4, 7]: 750 µM (≈ 161 µg/mL)
24 | CCCCC/C=C\C/C=C\C/C=C\C/C=C\CCCC(=O)O [Arachidonic acid] | Yes |  |  | 
25 | CCCCCC[C@@H](O)C/C=C\CCCCCCCC(=O)O [Ricinoleic acid] | Yes | No |  | Log reduction at 1 mM (calculated log reduction in viable bacteria) [2]: 3.5 log10
26 | O=C(O)CCCCCCC(=O)O [Suberic acid] | No |  |  | 
27 | CCCCC/C=C\C/C=C\CCCCCCCC(=O)O [Linoleic acid] | Yes | No | 1.6 | 
28 | CCCCCCCCCCCCCC(=O)OCC(O)CO (stereo not drawn) [Monomyristin] | Yes | No |  | Log reduction at 1 mM (calculated log reduction in viable bacteria) [2]: 0.6 log10
29 | O=C(O)CCCCCCCCC(=O)O [Sebacic acid] | No |  |  | 
30 | CCCCCCCCCCCCCC(=O)OC(C)C [Isopropyl myristate] | No |  |  | 
